Assay results published in patent EP0049683A2, “Imidazo-rifamycines, process for their preparation, pharmaceutical preparations containing them and their use” (CIBA-GEIGY AG, priority 1980, dated 1982).
≈ marks a conversion by molar mass, not a printed value.

Experiments:
Test in all cases: Agar dilution MIC in DST agar (Ericsson and Sherris)
Format in all cases: cell-based
[1] = test system: Staphylococcus aureus 10B; details: in vitro; for MIC: Staphylococcus aureus, 10B, read-out: MIC Staph. 10B
Excerpt: (§1) Die antibiotische Aktivität der Testverbindungen in vitro wurde durch die Agarverdünnungsmethode nach Ericsson, H.M., und Sherris, S.C., 1971, Acta Path. Microb. Scand. Section B, Suppl. No. 217, Bd. 1-90, in DST Agara ermittelt. Die gefundenen, das Wachstum der Testorganismen noch hemmenden Minimalkonzentrationen (MIC = minimum inhibiting concentrations) werden in Mikrogramm pro Milliliter (µg/ml) für die geprüften Verbindungen in der Tabelle 1 angegeben.

[2] = test system: Escherichia coli 205; details: for MIC: Escherichia coli, 205, in vitro, read-out: MIC Esch. 205; for MIC Esch. 205: in vitro
Excerpt: as §1

[3] = test system: Proteus morganii 1518; details: for MIC: Morganella morganii, 1518, in vitro, read-out: MIC Prot. 1518; for MIC Prot. 1518: in vitro
Excerpt: as §1

[4] = test system: Proteus morganii 2359; details: for MIC: Morganella morganii, 2359, in vitro, read-out: MIC Prot. 2359; for MIC Prot. 2359: in vitro
Excerpt: as §1

[5] = test system: Staphylococcus aureus 2999; details: for MIC: Staphylococcus aureus, 2999, in vitro, read-out: MIC Staph. 2999; for MIC Staph. 2999: in vitro
Excerpt: as §1

[6] = test system: Pseudomonas aeruginosa K 799/61; details: for MIC: Pseudomonas aeruginosa, K799/61, read-out: MIC Pseu. 799; for MIC Pseu. 799: in vitro, agar dilution, DST agar
Excerpt: as §1

[7] = test system: Salmonella Typhimurium 277; details: in vitro; for MIC: Salmonella enterica, TYPHIMURIUM, read-out: MIC Salm. 277
Excerpt: as §1

[8] = test system: Escherichia coli 2018; details: for MIC: Escherichia coli, 2018, in vitro, read-out: MIC Esch. 2018; for MIC Esch. 2018: in vitro
Excerpt: as §1

Molecule	MIC [1] [µg/mL]	MIC [2] [µg/mL]	MIC [3] [µg/mL]	MIC [4] [µg/mL]	MIC [5] [µg/mL]	MIC [6] [µg/mL]	MIC [7] [µg/mL]	MIC [8] [µg/mL]	MIC Staph. 10B [1] [µg/mL]	MIC Esch. 205 [2] [µg/mL]	MIC Prot. 1518 [3] [µg/mL]	MIC Prot. 2359 [4] [µg/mL]	MIC Staph. 2999 [5] [µg/mL]	MIC Pseu. 799 [6] [µg/mL]	MIC Salm. 277 [7] [µg/mL]	MIC Esch. 2018 [8] [µg/mL]
C#CCN1CCN(c2nc3c([nH]2)c2c(O)c4c(O)c(C)c5c(c43)C(=O)[C@@](C)(O/C=C/[C@H](OC)[C@@H](C)[C@@H](OC(C)=O)[C@H](C)[C@H](O)[C@H](C)[C@@H](O)[C@@H](C)/C=C/C=C(/C)C(=O)N2)O5)CC1 [Verbindung 49, 4-(4-Propargylpiperazinyl)-imidazolo[4,5-c]rifamycin SV]	0.001 (≈ 0.00118 µM)	8 (≈ 9.48 µM)	8 (≈ 9.48 µM)	8 (≈ 9.48 µM)	0.001 (≈ 0.00118 µM)	8 (≈ 9.48 µM)	32 (≈ 37.9 µM)	32 (≈ 37.9 µM)								
4-[4-(2-Tetrahydrofurylmethyl)-piperazinyl]-imidazolo-[4,5-c]rifamycin SV [Verbindung 61]									0.005	16	4	4	0.005	32	32	4
CO[C@H]1/C=C/O[C@@]2(C)Oc3c(C)c(O)c4c(O)c(c5nc(N6CCN(C7CCCC7)CC6)[nH]c5c4c3C2=O)NC(=O)/C(C)=C\C=C\[C@H](C)[C@H](O)[C@@H](C)[C@@H](O)[C@@H](C)[C@H](OC(C)=O)[C@@H]1C [Verbindung 50, 4-(4-Cyclopentylpiperazinyl)-imidazolo[4,5-c]rifamycin SV]	0.01 (≈ 0.0114 µM)	8 (≈ 9.15 µM)	8 (≈ 9.15 µM)	8 (≈ 9.15 µM)	0.01 (≈ 0.0114 µM)	8 (≈ 9.15 µM)	32 (≈ 36.6 µM)	8 (≈ 9.15 µM)								
CO[C@H]1/C=C/O[C@@]2(C)Oc3c(C)c(O)c4c(O)c(c5[nH]c(N6CCCCC6)nc5c4c3C2=O)NC(=O)/C(C)=C\C=C\[C@H](C)[C@H](O)[C@@H](C)[C@@H](O)[C@@H](C)[C@H](OC(C)=O)[C@@H]1C [Verbindung 21, 4-Piperidino-imidazolo[4,5-c]rifamycin SV]	0.005 (≈ 0.00621 µM)	4 (≈ 4.97 µM)	4 (≈ 4.97 µM)	4 (≈ 4.97 µM)	0.005 (≈ 0.00621 µM)	16 (≈ 19.9 µM)	16 (≈ 19.9 µM)	4 (≈ 4.97 µM)								
4-(4-Methoxycarbonylmethylpiperazinyl)-imidazolo[4,5-c]-rifamycin SV [Verbindung 71]									0.02	32	32	32	0.02	128	128	32
4-(4-Isobutyl-perhydrct-1,4-diazepinyl)-imidazolo(4,5-c]-rifamycin SV [Verbindung 77]									0.01	8	8	8	0.01	8	32	8
CO[C@H]1/C=C/O[C@@]2(C)Oc3c(C)c(O)c4c(O)c(c5nc(N6CCN(CC7CC7)CC6)[nH]c5c4c3C2=O)NC(=O)/C(C)=C\C=C\[C@H](C)[C@H](O)[C@@H](C)[C@@H](O)[C@@H](C)[C@H](OC(C)=O)[C@@H]1C [Verbindung 54, 4-(4-Cyclopropylmethylpiperazinyl)-imidazolo[4,5-c]rifamycin SV]	0.005 (≈ 0.00581 µM)	8 (≈ 9.3 µM)	8 (≈ 9.3 µM)	8 (≈ 9.3 µM)	0.005 (≈ 0.00581 µM)	16 (≈ 18.6 µM)	32 (≈ 37.2 µM)	8 (≈ 9.3 µM)								
CO[C@H]1/C=C/O[C@@]2(C)Oc3c(C)c(O)c4c(O)c(c5[nH]c(N6CCC(N7CCCCC7)CC6)nc5c4c3C2=O)NC(=O)/C(C)=C\C=C\[C@H](C)[C@H](O)[C@@H](C)[C@@H](O)[C@@H](C)[C@H](OC(C)=O)[C@@H]1C [Verbindung 24, 4-(4-Piperidino-1-piperidyl-)-imidazolo[4,5-c]rifamycin SV]	0.05 (≈ 0.0563 µM)	8 (≈ 9.01 µM)	8 (≈ 9.01 µM)	4 (≈ 4.5 µM)	0.01 (≈ 0.0113 µM)	16 (≈ 18 µM)	16 (≈ 18 µM)	4 (≈ 4.5 µM)								
CO[C@H]1/C=C/O[C@@]2(C)Oc3c(C)c(O)c4c(O)c(c5[nH]c(N(C)C6CCN(C)CC6)nc5c4c3C2=O)NC(=O)/C(C)=C\C=C\[C@H](C)[C@H](O)[C@@H](C)[C@@H](O)[C@@H](C)[C@H](OC(C)=O)[C@@H]1C [Verbindung 13]	0.05 (≈ 0.059 µM)	8 (≈ 9.43 µM)	16 (≈ 18.9 µM)	16 (≈ 18.9 µM)	0.05 (≈ 0.059 µM)	8 (≈ 9.43 µM)	32 (≈ 37.7 µM)	8 (≈ 9.43 µM)								
CO[C@H]1/C=C/O[C@@]2(C)Oc3c(C)c(O)c4c(O)c(c5nc(N6CCN(c7ccccn7)CC6)[nH]c5c4c3C2=O)NC(=O)/C(C)=C\C=C\[C@H](C)[C@H](O)[C@@H](C)[C@@H](O)[C@@H](C)[C@H](OC(C)=O)[C@@H]1C [Verbindung 59, 4-[4-(2-Pyridyl)-piperazinyl]-imidazolo[4,5-c]rifamycin SV]	0.01 (≈ 0.0113 µM)	8 (≈ 9.06 µM)	2 (≈ 2.26 µM)	8 (≈ 9.06 µM)	0.01 (≈ 0.0113 µM)	8 (≈ 9.06 µM)	32 (≈ 36.2 µM)	8 (≈ 9.06 µM)								
CCC(C)CN1CCN(c2nc3c([nH]2)c2c(O)c4c(O)c(C)c5c(c43)C(=O)[C@@](C)(O/C=C/[C@H](OC)[C@@H](C)[C@@H](OC(C)=O)[C@H](C)[C@H](O)[C@H](C)[C@@H](O)[C@@H](C)/C=C/C=C(/C)C(=O)N2)O5)CC1 (stereo partly drawn) [Verbindung 38, 4-[4-(2-Methyl-butyl)piperazinyl]-imidazolo[4,5-c]rifamycin SV]	0.005 (≈ 0.00571 µM)	4 (≈ 4.57 µM)	4 (≈ 4.57 µM)	2 (≈ 2.28 µM)	0.005 (≈ 0.00571 µM)	16 (≈ 18.3 µM)	16 (≈ 18.3 µM)	2 (≈ 2.28 µM)								
4-(4-Butylpiperazinyl)-imidazolo[4,5-c]rifamycin SV [Verbindung 33]									0.001	8	4	4	0.001	32	32	2
CCCN(CCC)c1nc2c3c(O)c4c(O)c(C)c5c(c4c2[nH]1)C(=O)C(C)(OC=CC(OC)C(C)C(OC(C)=O)C(C)C(O)C(C)C(O)C(C)C=CC=C(C)C(=O)N3)O5 (stereo not drawn) [Verbindung 7, 4-Dipropylamino-imidazolo[4,5-c]rifamycin SV]	0.005 (≈ 0.00609 µM)	8 (≈ 9.74 µM)	8 (≈ 9.74 µM)	8 (≈ 9.74 µM)	0.005 (≈ 0.00609 µM)	8 (≈ 9.74 µM)	16 (≈ 19.5 µM)	8 (≈ 9.74 µM)								
4-[4-(2,2-Diethoxyethyl)-piperazinyl]-imidazolo[4,5-c]-rifamycin SV [Verbindung 66]									0.01	16	16	16	0.01	32	128	16
CCOC(=O)C1CCN(c2nc3c([nH]2)c2c(O)c4c(O)c(C)c5c(c43)C(=O)[C@@](C)(O/C=C/[C@H](OC)[C@@H](C)[C@@H](OC(C)=O)[C@H](C)[C@H](O)[C@H](C)[C@@H](O)[C@@H](C)/C=C/C=C(/C)C(=O)N2)O5)CC1 [Verbindung 22, 4-(4-Ethoxycarbonyl-1-piperidyl)-imidazolo[4,5-c]rifamycin SV]	0.005 (≈ 0.0057 µM)	16 (≈ 18.2 µM)	4 (≈ 4.56 µM)	4 (≈ 4.56 µM)	0.005 (≈ 0.0057 µM)	16 (≈ 18.2 µM)	32 (≈ 36.5 µM)	8 (≈ 9.12 µM)								
COC1C=COC2(C)Oc3c(C)c(O)c4c(O)c(c5nc(N(C)C(C)C)[nH]c5c4c3C2=O)NC(=O)C(C)=CC=CC(C)C(O)C(C)C(O)C(C)C(OC(C)=O)C1C (stereo not drawn) [Verbindung 8, 4-(N-Isopropyl-N-methylamino)-imidazolo[4,5-c]rifamycin SV]	0.01 (≈ 0.0126 µM)	8 (≈ 10.1 µM)	8 (≈ 10.1 µM)	8 (≈ 10.1 µM)	0.01 (≈ 0.0126 µM)	8 (≈ 10.1 µM)	32 (≈ 40.4 µM)	8 (≈ 10.1 µM)								
CO[C@H]1/C=C/O[C@@]2(C)Oc3c(C)c(O)c4c(O)c(c5nc(N6CCN(Cc7ccccn7)CC6)[nH]c5c4c3C2=O)NC(=O)/C(C)=C\C=C\[C@H](C)[C@H](O)[C@@H](C)[C@@H](O)[C@@H](C)[C@H](OC(C)=O)[C@@H]1C [Verbindung 60, 4-[4-(2-Pyridylmethyl)-piperazinyl]-imidazolo[4,5-c]-rifamycin SV]	0.02 (≈ 0.0223 µM)	32 (≈ 35.7 µM)	32 (≈ 35.7 µM)	32 (≈ 35.7 µM)	0.02 (≈ 0.0223 µM)	64 (≈ 71.3 µM)	128 (≈ 143 µM)	32 (≈ 35.7 µM)								
C=CCCN1CCN(c2nc3c([nH]2)c2c(O)c4c(O)c(C)c5c(c43)C(=O)[C@@](C)(O/C=C/[C@H](OC)[C@@H](C)[C@@H](OC(C)=O)[C@H](C)[C@H](O)[C@H](C)[C@@H](O)[C@@H](C)/C=C/C=C(/C)C(=O)N2)O5)CC1 [Verbindung 45, 4-[4-(3-Butenyl)-piperazinyl]-imidazolo[4,5-c]rifamycin SV]	0.01 (≈ 0.0116 µM)	8 (≈ 9.3 µM)	8 (≈ 9.3 µM)	8 (≈ 9.3 µM)	0.005 (≈ 0.00581 µM)	32 (≈ 37.2 µM)	32 (≈ 37.2 µM)	1 (≈ 1.16 µM)								
